Where “and” joins values, the source holds several entries; their conditions need not be identical. Identical values can stand only once.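 Growth conditions: 96-well plates. Treatment: test compound, 48 hours, 5 concentrations. Analysis: linear interpolation between bracketing concentrations; unreached endpoints set to highest concentration. Abbreviation: GI50, concentration required for 50% inhibition of growth. Definition used: TGI = concentration required for complete inhibition of growth.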
Tests used:
Assay in all cases: inhibition of tumour cell growth, NCI panel, 48 h
[1] = test system: A549 NSCLC
[2] = test system: HS 578T breast
[3] = test system: HL-60(TB) leukemia
[4] = test system: T-47D breast
[5] = test system: OVCAR-3 ovarian
[6] = test system: LOX IMVI melanoma
[7] = test system: MALME-3M melanoma
[8] = test system: SW-620 colon
[9] = test system: SK-OV-3 ovarian
[10] = test system: MDA-MB-231 breast

CC(=O)O[C@H]1[C@@H]2OC(=O)C(CSc3ccccc3)[C@@H]2C[C@H]2O[C@]2(C)CC/C=C(\C)CCC[C@@H]1C (stereo not given in full)
GI50 [1]: 4.34 µM | TGI [1]: 21.4 µM | GI50 [2]: 2.79 µM | TGI [2]: 10.2 µM | GI50 [3]: 1.4 µM | TGI [3]: 4.69 µM | GI50 [4]: 2.43 µM | TGI [4]: 12.6 µM | GI50 [5]: 1.87 µM | TGI [5]: 4.11 µM | GI50 [6]: 3.22 µM | TGI [6]: 13.9 µM | GI50 [7]: 4.05 µM | TGI [7]: 19.5 µM | GI50 [8]: 2.22 µM | TGI [8]: 4.92 µM | GI50 [9]: 13.6 µM | TGI [9]: 57 µM | GI50 [10]: 4.25 µM | TGI [10]: 19.5 µM

Cc1ccc(NC(=O)CSc2nnc3n(Cc4ccccc4)c(=O)c4c(C)c(C(N)=O)sc4n23)cc1
GI50 [1]: > 100 µM | TGI [1]: > 100 µM | GI50 [2]: 5.22 µM | TGI [2]: 77.6 µM | GI50 [3]: > 100 µM | TGI [3]: > 100 µM | GI50 [4]: 8.12 µM | TGI [4]: > 100 µM | GI50 [5]: > 100 µM | TGI [5]: > 100 µM | GI50 [6]: > 100 µM | TGI [6]: > 100 µM | GI50 [7]: > 100 µM | TGI [7]: > 100 µM | GI50 [8]: > 100 µM | TGI [8]: > 100 µM | GI50 [9]: 4.28 µM | TGI [9]: 65.4 µM | GI50 [10]: 3.44 µM | TGI [10]: 58.8 µM

Cc1ccc(NS(=O)(=O)c2cccc(C#N)c2)c2[nH]cc(C#N)c12
GI50 [1]: 17.9 µM and 12.7 µM | TGI [1]: > 100 µM | GI50 [2]: 16.4 µM and 20 µM | TGI [2]: 78.8 µM and > 96.3 µM | GI50 [3]: 20.1 µM and 26.8 µM | TGI [3]: 65.4 µM and > 82.2 µM | GI50 [4]: 5.21 µM and 10.2 µM | TGI [4]: > 86.4 µM | GI50 [5]: 22 µM and 27.3 µM | TGI [5]: 60.2 µM and > 94.7 µM | GI50 [6]: 16.7 µM and 14.9 µM | TGI [6]: > 100 µM | GI50 [7]: 15.5 µM and 12.9 µM | TGI [7]: 57.1 µM and 68.2 µM | GI50 [8]: 0.76 µM and 1.7 µM | TGI [8]: > 100 µM | GI50 [9]: 0.829 µM and 0.361 µM | TGI [9]: 63.4 µM and 74.1 µM | GI50 [10]: 13.6 µM and 22 µM | TGI [10]: > 85 µM

O=C(N/N=C/c1ccc(O)cc1O)c1cccc(Nc2ccnc(C(F)(F)F)c2)c1
GI50 [1]: 6.44 µM | TGI [1]: > 72 µM | GI50 [2]: 7.71 µM | TGI [2]: 46.7 µM | GI50 [3]: 0.472 µM | TGI [3]: 2.98 µM | GI50 [4]: 0.66 µM | TGI [4]: 15.6 µM | GI50 [5]: 0.488 µM | TGI [5]: 30.9 µM | GI50 [6]: 0.501 µM | TGI [6]: 12.5 µM | GI50 [7]: 1.32 µM | TGI [7]: 11.5 µM | GI50 [8]: 4.07 µM | TGI [8]: 21.4 µM | GI50 [9]: 1.22 µM | TGI [9]: 18.3 µM | GI50 [10]: 1.08 µM | TGI [10]: 51.8 µM

CN(CC(=O)Nc1nc2ccccc2[nH]1)S(=O)(=O)c1ccc(Cl)cc1
GI50 [1]: > 100 µM | TGI [1]: > 100 µM | GI50 [2]: 65 µM | TGI [2]: > 100 µM | GI50 [3]: > 100 µM | TGI [3]: > 100 µM | GI50 [4]: > 100 µM | TGI [4]: > 100 µM | GI50 [5]: > 100 µM | TGI [5]: > 100 µM | GI50 [6]: > 100 µM | TGI [6]: > 100 µM | GI50 [7]: > 100 µM | TGI [7]: > 100 µM | GI50 [8]: > 100 µM | TGI [8]: > 100 µM | GI50 [9]: > 100 µM | TGI [9]: > 100 µM | GI50 [10]: > 100 µM | TGI [10]: > 100 µM

CC(CN(C)C)Oc1ccccc1NC1=C(Cl)C(=O)C(Nc2ccccc2OC(C)CN(C)C)=C(Cl)C1=O (stereo not given)
GI50 [1]: 1.7 µM | TGI [1]: 3.24 µM | GI50 [2]: 1.8 µM | TGI [2]: 4.53 µM | GI50 [3]: 0.272 µM | TGI [3]: 0.902 µM | GI50 [4]: 0.175 µM | TGI [4]: 0.455 µM | GI50 [5]: 0.167 µM | TGI [5]: 0.31 µM | GI50 [6]: 0.183 µM | TGI [6]: 0.377 µM | GI50 [7]: 0.605 µM | TGI [7]: 1.38 µM | GI50 [8]: 0.175 µM | TGI [8]: 0.357 µM | GI50 [9]: 2.29 µM | TGI [9]: 5.43 µM | GI50 [10]: 0.509 µM | TGI [10]: 1.2 µM

O=C1OC(=O)C2CCCC3CCCC1C32 (stereo not given)
TGI [1]: > 100 µM | TGI [2]: > 100 µM | TGI [3]: > 100 µM | TGI [4]: > 100 µM | TGI [5]: > 100 µM | TGI [6]: > 100 µM | TGI [7]: > 100 µM | TGI [8]: > 100 µM | TGI [9]: > 100 µM | TGI [10]: > 100 µM

CCOC(=O)c1cc(-c2ccccc2)[nH]c1N/N=C/c1ccc(Cl)cc1
GI50 [1]: 81.5 µM | TGI [1]: > 100 µM | GI50 [2]: 77.7 µM | TGI [2]: > 100 µM | GI50 [3]: 29.5 µM | TGI [3]: 63.8 µM | GI50 [4]: 45.5 µM | TGI [4]: > 100 µM | GI50 [5]: > 100 µM | TGI [5]: > 100 µM | GI50 [6]: 62.1 µM | TGI [6]: > 100 µM | GI50 [7]: > 100 µM | TGI [7]: > 100 µM | GI50 [8]: > 100 µM | TGI [8]: > 100 µM | GI50 [9]: > 100 µM | TGI [9]: > 100 µM | GI50 [10]: > 100 µM | TGI [10]: > 100 µM

OCCNc1nc(Nc2ccc(Cl)c(Cl)c2)nc2ccccc12
GI50 [1]: 4.2 µM | TGI [1]: 18 µM | GI50 [2]: 6.91 µM | TGI [2]: 25.2 µM | GI50 [3]: 8.69 µM | TGI [3]: 33.4 µM | GI50 [4]: 9.65 µM | TGI [4]: 25.9 µM | GI50 [5]: 7.51 µM | TGI [5]: 19.9 µM | GI50 [6]: 3.38 µM | TGI [6]: 11.9 µM | GI50 [7]: 4.97 µM | TGI [7]: 17.5 µM | GI50 [8]: 4.02 µM | TGI [8]: 16.2 µM | GI50 [9]: 11 µM | TGI [9]: 23.4 µM | GI50 [10]: 1.97 µM | TGI [10]: 5.4 µM

C/C(O)=C(\C#N)C(=O)Nc1ccc(C(F)(F)F)cc1
GI50 [1]: 26.5 µM | TGI [1]: > 100 µM | GI50 [2]: 39.1 µM | TGI [2]: > 100 µM | GI50 [3]: 64.3 µM | TGI [3]: > 100 µM | GI50 [4]: 92 µM | TGI [4]: > 100 µM | GI50 [5]: 37 µM | TGI [5]: > 100 µM | GI50 [6]: 8.21 µM | TGI [6]: > 100 µM | GI50 [7]: 62.8 µM | TGI [7]: > 100 µM | GI50 [8]: 36.4 µM | TGI [8]: > 100 µM | GI50 [9]: 94.5 µM | TGI [9]: > 100 µM | GI50 [10]: 26.3 µM | TGI [10]: > 100 µM

CO/N=C(\COc1ccc2oc(-c3ccccc3)cc(=O)c2c1)c1ccc(OC)cc1
GI50 [1]: 24.4 µM | TGI [1]: 73 µM | GI50 [2]: 35.1 µM | TGI [2]: > 100 µM | GI50 [3]: 6.16 µM | TGI [3]: > 100 µM | GI50 [4]: 22.8 µM | TGI [4]: 63.8 µM | GI50 [5]: 22.7 µM | TGI [5]: 71 µM | GI50 [6]: 41.4 µM | TGI [6]: > 100 µM | GI50 [7]: 24.8 µM | TGI [7]: 63.8 µM | GI50 [8]: 25.6 µM | TGI [8]: > 100 µM | GI50 [9]: 59.3 µM | TGI [9]: > 100 µM | GI50 [10]: 22 µM | TGI [10]: 45.2 µM

O=[N+]([O-])c1cc(C(F)(F)F)ccc1Sc1ccc(C(F)(F)F)cc1[N+](=O)[O-]
GI50 [1]: 24.9 µM | TGI [1]: > 100 µM | GI50 [2]: 18.6 µM | TGI [2]: > 100 µM | GI50 [3]: 3.32 µM | TGI [3]: > 100 µM | GI50 [4]: 29.2 µM | TGI [4]: > 100 µM | GI50 [5]: 5.11 µM | TGI [5]: 54.9 µM | GI50 [6]: 3.37 µM | TGI [6]: > 100 µM | GI50 [7]: 17.5 µM | TGI [7]: > 100 µM | GI50 [8]: 3.31 µM | TGI [8]: > 100 µM | GI50 [9]: 7.65 µM | TGI [9]: > 100 µM | GI50 [10]: 5.1 µM | TGI [10]: > 100 µM

O=C(O)c1c(=O)cccc2ssc12
GI50 [1]: 1.86 µM | TGI [1]: 3.77 µM | GI50 [2]: 2.43 µM | TGI [2]: 5.54 µM | GI50 [3]: 1.81 µM | TGI [3]: 4.43 µM | GI50 [4]: 2.15 µM | TGI [4]: 5.24 µM | GI50 [5]: 1.81 µM | TGI [5]: 3.38 µM | GI50 [6]: 1.78 µM | TGI [6]: 3.42 µM | GI50 [7]: 2.22 µM | TGI [7]: 4.45 µM | GI50 [8]: 2.22 µM | TGI [8]: 5.59 µM | GI50 [9]: 1.74 µM | TGI [9]: 3.26 µM | GI50 [10]: 2.29 µM | TGI [10]: 4.67 µM

COc1cc(C2=N/C(=C/c3cccs3)C(=O)O2)cc(OC)c1OC
TGI [1]: > 100 µM | TGI [2]: > 100 µM | TGI [3]: > 100 µM | TGI [4]: > 100 µM | TGI [5]: > 100 µM | TGI [6]: > 100 µM | TGI [7]: > 100 µM | TGI [8]: > 100 µM | TGI [9]: > 100 µM | TGI [10]: > 100 µM

C=C(CO)[C@@H]1CC[C@]2(COC3CCCCO3)CC[C@]3(C)[C@H](CC[C@@H]4[C@@]5(C)C=C(C=O)C(=O)C(C)(C)[C@@H]5CC[C@]43C)[C@@H]12 (stereo not given in full)
GI50 [1]: 0.495 µM | TGI [1]: 1.87 µM | GI50 [2]: 0.318 µM | TGI [2]: 0.997 µM | GI50 [3]: 0.25 µM | TGI [3]: 0.994 µM | GI50 [4]: 0.332 µM | TGI [4]: 1.65 µM | GI50 [5]: 0.207 µM | TGI [5]: 0.428 µM | GI50 [6]: 0.191 µM | TGI [6]: 0.392 µM | GI50 [7]: 0.222 µM | TGI [7]: 0.544 µM | GI50 [8]: 0.267 µM | TGI [8]: 0.832 µM | GI50 [9]: 1.3 µM | TGI [9]: 2.68 µM | GI50 [10]: 0.214 µM | TGI [10]: 0.565 µM

Source: PubChem BioAssay (NCI)
